Bounds are passed on as bounds.

One data set deals with T1, EGFR T790M/L858R (Homo sapiens, UniProt P00533, L858R/T790M).
T1 construct: purchased Invitrogen PR8911A
Kind of data set: Mutant EGFR T790M/L858R activity inhibition assay (Caliper mobility shift). Type of data set: biochemical. The following applies: read-out: enzyme activity inhibition (IC50) EGFR T790M/L858R. The procedure: The assay procedure is as follows. […] 5 μl of the compound dissolved in 10% DMSO at a concentration of 5-fold of the final reaction concentration was added to a 384 well plate. 5 μl of 10% DMSO was used in a no-compound control well, while 5 μl of a kinase buffer was used in a no-enzyme activity control well. […] The conversion rate was read on Caliper EZ Reader II (Caliper Life Sciences). The conversion rate was then converted to inhibitory rate.
As used herein, “max” refers to the conversion rate of the DMSO no-compound control well, and “min” refers to the conversion rate of the no-enzyme activity control well. A curve was obtained by plotting the inhibitory rate as a function of the compound concentration. The XLFit excel add-in version 4.3.1 software was used to fit the curve and calculate the IC50. Inhibitory rate %=(max−conversion rate)/(max−min)×100.

Another data set has as its system H358. Kind of data set: Inhibition assay on tumor cell proliferation (CellTiter-Glo), H358. The following applies: Homo sapiens, NCI-H358; H358 (wild-type EGFR), 72 hours, 10% bovine serum. It counts as cell-based, Human. The procedure:
By using a CellTiter-Glo luminescence cell viability test kit (Promega, # G7572), the content of adenosine triphosphate (ATP) was determined to assess the cell viability.
Human colon cancer cell line LOVO and human non-small-cell lung cancer H358 express wild-type EGFR. Human non-small-cell lung cancer cell line HCC827 carries deletion mutation in exon 19 (ex19del). Those cell lines are purchased from Shanghai Fudan IBS Cell Resource Center and American Tissue Culture Collection (ATCC).
The assay procedure is as follows. The cells in a cell culture plate were digested with a pancreatic enzyme, re-suspended in a DPBS culture medium, and had the cell density counted by Scepter automated cytometer (Millipore # PHCC00000). The cells were diluted to a solution of 44,000 cells per ml. The cell solution with adjusted density was added to the cell assay plate at 90 microliters per well. The plate was placed in an incubator with 5% CO2 at 37° C. for 24 hours of incubation, and then added with different concentrations of subject compounds. The cells were incubated for 72 hours with the compounds in presence of 10% bovine serum. The content of ATP was determined by a CellTiter-Glo® Luminescent Cell Viability Assay kit (see the manufacturer's instruction for details) to evaluate cell-growth inhibition.
Briefly, 30 μl of CellTiter-Glo® reagent was added to each well, and then shaken for 10 minutes to induce cell lysis. The fluorescent signal was detected and recorded by Fluoroskan Ascent FL (Thermo). The max signal value was obtained from the cells treated by dimethyl sulfoxide for 72 hours. The min signal value was obtained from the medium alone (the number of the cells was 0). Inhibitory rate %=(max signal value−compound signal value)/(max signal value−min signal value)×100. The data was processed by GraphPad Prism V5.0 software (GraphPad Software, San Diego, Calif.). Sigmoidal dose-response curve fitting was performed to calculate the IC50 value.

The next data set concerns H1975. The data set can be described thus: Inhibition assay on tumor cell proliferation (CellTiter-Glo), H1975. As to conditions: Homo sapiens, NCI-H1975; H1975 (L858R and T790M EGFR double mutation), 72 hours, 10% bovine serum. Type of data set: cell-based, Human.

T1 sequence (P00533 25-1210 T790M/L858R): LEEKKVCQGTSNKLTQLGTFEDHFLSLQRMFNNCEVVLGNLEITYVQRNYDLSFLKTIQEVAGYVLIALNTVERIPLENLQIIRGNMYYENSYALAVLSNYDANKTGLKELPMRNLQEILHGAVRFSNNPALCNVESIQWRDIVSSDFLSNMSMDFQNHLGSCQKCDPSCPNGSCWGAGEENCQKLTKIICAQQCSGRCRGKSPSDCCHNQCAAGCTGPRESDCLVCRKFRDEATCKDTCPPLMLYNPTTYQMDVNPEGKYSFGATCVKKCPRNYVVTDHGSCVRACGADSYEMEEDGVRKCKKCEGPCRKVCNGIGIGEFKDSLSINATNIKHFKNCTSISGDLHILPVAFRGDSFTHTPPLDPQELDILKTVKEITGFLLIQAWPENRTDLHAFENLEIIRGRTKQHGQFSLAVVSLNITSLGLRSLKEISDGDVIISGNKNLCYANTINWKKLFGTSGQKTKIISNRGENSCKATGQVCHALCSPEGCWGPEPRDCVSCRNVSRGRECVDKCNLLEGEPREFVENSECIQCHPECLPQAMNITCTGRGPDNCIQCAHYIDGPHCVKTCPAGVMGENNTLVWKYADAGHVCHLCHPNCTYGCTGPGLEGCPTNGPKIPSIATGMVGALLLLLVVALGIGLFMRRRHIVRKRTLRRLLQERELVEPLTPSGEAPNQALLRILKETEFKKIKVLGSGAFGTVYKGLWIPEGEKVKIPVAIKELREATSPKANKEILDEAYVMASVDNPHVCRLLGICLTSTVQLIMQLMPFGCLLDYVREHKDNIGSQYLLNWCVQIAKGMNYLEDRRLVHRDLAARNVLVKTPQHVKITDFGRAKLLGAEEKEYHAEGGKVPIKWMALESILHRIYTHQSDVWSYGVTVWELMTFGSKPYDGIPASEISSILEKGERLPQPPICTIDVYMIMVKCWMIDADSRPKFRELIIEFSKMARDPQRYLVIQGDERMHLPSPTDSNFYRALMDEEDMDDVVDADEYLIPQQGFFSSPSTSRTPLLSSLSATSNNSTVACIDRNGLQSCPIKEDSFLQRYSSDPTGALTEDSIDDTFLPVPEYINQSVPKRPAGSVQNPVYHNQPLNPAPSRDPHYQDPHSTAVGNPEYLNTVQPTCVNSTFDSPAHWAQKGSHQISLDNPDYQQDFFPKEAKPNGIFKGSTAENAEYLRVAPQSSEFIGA

Take `C=CC(=O)Nc1cc(Nc2nccc(-n3c(=O)n(C(C)C)c4ccccc43)n2)c(C)cc1N(C)CCN(C)C` [Compound 127, N-(2-((2-(dimethylamino)ethyl)(methyl)amino)-5-((4-(3-isopropyl-2-oxo-2,3-dihydro-1H-benzo[d]imidazol-1-yl)pyrimidin-2-yl)amino)-4-methylphenyl)acrylamide]: the melting point fell in the range of 179 to 181 °C. Moreover, the IC50 on EGFR T790M/L858R was under 1 nM. In the data set with H358, the IC50 was over 1000 nM. The compound also came in with an IC50 in the data set on H1975 of under 10 nM.

In turn, `C=CC(=O)Nc1cc(Nc2ncc(OC)c(-n3c(=O)n(C(C)C)c4ccccc43)n2)c(OC)cc1N(C)CCN(C)C` [Compound 133, N-(2-((2-(dimethylamino)ethyl) (methyl)amino)-5-((4-(3-isopropyl-2-oxo-2,3-dihydro-1H-benzo[d]imidazol-1-yl)-5-methoxypyrimidin-2-yl)amino)-4-methoxyphenyl)acrylamide] showed a melting point of 92 to 95 °C. In addition, the IC50 at EGFR T790M/L858R fell in the range of 1 to 10 nM. Moreover, the IC50 in the data set on H358 was over 1000 nM. Also, the IC50 in the data set with H1975 was under 10 nM.

Compound `C=CC(=O)Nc1cc(Nc2nccc(-n3c(=O)n(C(C)C)c4cc(OC)ccc43)n2)c(OC)cc1N(C)CCN(C)C` [Compound 138, N-(2-((2-(dimethylamino)ethyl)(methyl)amino)-5-((4-(3-isopropyl-5-methoxy-2-oxo-2,3-dihydro-1H-benzo[d]imidazol-1-yl)pyrimidin-2-yl)amino)-4-methoxyphenyl)acrylamide] registered a melting point of 95 to 98 °C. In addition, the IC50 at EGFR T790M/L858R fell in the range of 1 to 10 nM. In the data set with H358, this compound returned an IC50 of 100 to 1000 nM. In addition, the IC50 in the data set on H1975 is under 10 nM.

`C=CC(=O)Nc1cc(Nc2nccc(-n3c(=O)n(C4CC4)c4cc(Cl)ccc43)n2)c(OC)cc1N(C)CCN(C)C` [Compound 99, N-(5-((4-(5-chloro-3-cyclopropyl-2-oxo-2,3-dihydro-1H-benzo[d]imidazol-1-yl)pyrimidin-2-yl)amino)-2-((2-(dimethylamino)ethyl)(methyl)amino)-4-methoxyphenyl)acrylamide] returned a melting point of 124 to 126 °C. Also, the IC50 on EGFR T790M/L858R fell in the range of 1 to 10 nM. This compound also gave an IC50 with H358 of 100 to 1000 nM. The compound further showed an IC50 in the data set on H1975 of under 10 nM.

With `C=CC(=O)Nc1cc(Nc2nccc(-n3c(=O)n(C)c4ccccc43)n2)c(C(C)C)cc1N(C)CCN(C)C` [Compound 132, N-(2-((2-(dimethylamino)ethyl)(methyl)amino)-4-isopropyl-5-((4-(3-methyl-2-oxo-2,3-dihydro-1H-benzo[d]imidazol-1-yl)pyrimidin-2-yl)amino)phenyl)acrylamide], the IC50 on EGFR T790M/L858R was 1 to 10 nM; in the data set on H358, over 1000 nM; in the data set on H1975, under 10 nM.

Take `CC/C=C/C(=O)Nc1cc(Nc2nccc(-n3ccc4ccccc43)n2)c(OC)cc1N(C)CCN(C)C` [Compound 67, (E)-N-(5-((4-(1H-indol-1-yl)pyrimidin-2-yl)amino)-2-((2-(dimethylamino)ethyl)(methyl)amino)-4-methoxyphenyl)pent-2-enamide]: the melting point lay within 124.3 to 126.2 °C. In addition, on EGFR T790M/L858R, the IC50 is 50 to 100 nM.

As to `CCC#CC(=O)Nc1cc(Nc2nccc(-n3ccc4ccccc43)n2)c(OC)cc1N(C)CCN(C)C` [Compound 74, N-(5-((4-(1H-indol-1-yl)pyrimidin-2-yl)amino)-2-((2-(dimethylamino)ethyl)(methyl)amino)-4-methoxyphenyl)pent-2-ynamide], the melting point was 149.4 to 151.7 °C. Besides, on EGFR T790M/L858R, the IC50 is 1 to 10 nM.

Consider `C=CC(=O)Nc1cc(Nc2nccc(-n3c(=O)n(C(C)C)c4cc(O)ccc43)n2)c(OC)cc1N(C)CCN(C)C` [Compound 139, N-(2-((2-(dimethylamino)ethyl)(methyl)amino)-5-((4-(5-hydroxy-3-isopropyl-2-oxo-2,3-dihydro-1H-benzo[d]imidazol-1-yl)pyrimidin-2-yl)amino)-4-methoxyphenyl)acrylamide], for which the melting point lay within 115 to 117 °C. At EGFR T790M/L858R, the IC50 is under 1 nM. The compound further yielded an IC50 in the data set on H358 of 100 to 1000 nM. Moreover, in the data set with H1975, the IC50 is under 10 nM.

As to `C=CC(=O)Nc1cc(Nc2nccc(-n3ccc4ccccc43)n2)c(OC)cc1N1CCN(C)CC1` [Compound 84, N-(5-((4-(1H-indol-1-yl)pyrimidin-2-yl)amino)-4-methoxy-2-(4-methylpiperazin-1-yl)phenyl)acrylamide], the melting point is 204 to 205 °C. In addition, at EGFR T790M/L858R, the IC50 was 10 to 50 nM.

As to `C=CC(=O)Nc1cc(Nc2nccc(-n3c(=O)n(C(C)C)c4ccccc43)n2)ccc1N(C)CCN(C)C` [Compound 128, N-(2-((2-(dimethylamino)ethyl)(methyl)amino)-5-((4-(3-isopropyl-2-oxo-2,3-dihydro-1H-benzo[d]imidazol-1-yl)pyrimidin-2-yl)amino)phenyl)acrylamide], the melting point is 85 to 90 °C. In addition, the IC50 at EGFR T790M/L858R is under 1 nM. For the same compound, the IC50 with H358 is 100 to 1000 nM. In the data set on H1975, the IC50 is under 10 nM.

The compound `C=CC(=O)Nc1cc(Nc2nccc(-n3c(=O)n(C)c4ccccc43)n2)c(OCCOC)cc1N(C)CCN(C)C` [Compound 120, N-{2-[(2-dimethylamino-ethyl)-methyl-amino]-4-(2-methoxy-ethoxy)-5-[4-(3-methyl-2-oxo-2,3-dihydro-benzoimidazol-1-yl)-pyrimidin-2-ylamino]-phenyl}-acrylamide] showed a melting point of 71 to 78 °C. Besides, at EGFR T790M/L858R, the IC50 fell in the range of 1 to 10 nM.

Regarding `C=CC(=O)Nc1cc(Nc2nccc(-n3ccc4ccccc43)n2)c(OC)cc1N(C)CCN1CCOCC1` [Compound 82, N-{5-(4-indol-1-yl-pyrimidin-2-ylamino)-4-methoxy-2-[methyl-(2-morpholin-4-yl-ethyl)-amino]-phenyl}-acryl amide], the IC50 was 1 to 10 nM at EGFR T790M/L858R, over 1000 nM in the data set with H358 and 50 to 100 nM in the data set with H1975.

With `C=CC(=O)Nc1cc(Nc2nccc(-n3c(=O)n(CC4CC4)c4cc(F)ccc43)n2)c(OC)cc1N(C)CCN(C)C` [Compound 105, N-(5-(4-(3-(cyclopropylmethyl)-5-fluoro-2-oxo-2,3-dihydro-1H-benzo[d]imidazol-1-yl)pyrimidin-2-ylamino)-2-((2-(dimethylamino)ethyl)(methyl)amino)-4-methoxyphenyl)acrylamide], the results for the IC50 at EGFR T790M/L858R, in the data set with H358 and with H1975 were under 1 nM, 100 to 1000 nM and under 10 nM, respectively.

Take `C=C(C)C(=O)Nc1cc(Nc2nccc(-n3ccc4ccccc43)n2)c(OC)cc1N(C)CCN(C)C` [Compound 68, N-(5-((4-(1H-indol-1-yl)pyrimidin-2-yl)amino)-2-((2-(dimethylamino)ethyl)(methyl)amino)-4-methoxyphenyl)methacryl amide]: the melting point was 145.7 to 147.1 °C. The IC50 at EGFR T790M/L858R lay in the range of 10 to 50 nM.

Turning to `COC/C=C/C(=O)Nc1cc(Nc2nccc(-n3ccc4ccccc43)n2)c(OC)cc1N(C)CCN(C)C` [Compound 71], at EGFR T790M/L858R, the IC50 was in the range of 1 to 10 nM.

`C/C=C/C(=O)Nc1cc(Nc2nccc(-n3ccc4ccccc43)n2)c(OC)cc1N(C)CCN(C)C` [Compound 66, (E)-N-(5-((4-(1H-indol-1-yl)pyrimidin-2-yl)amino)-2-((2-(dimethylamino)ethyl)(methyl)amino)-4-methoxyphenyl)but-2-enamide] came in with a melting point of 150.2 to 152.8 °C. Besides, the IC50 at EGFR T790M/L858R is 10 to 50 nM.

On to `C=CC(=O)Nc1cc(Nc2nccc(-n3ccc4ccccc43)n2)c(OC)cc1N(C)CCN1CCCCC1` [Compound 81, N-(5-(4-(1H-indol-1-yl)pyrimidin-2-ylamino)-4-methoxy-2-(methyl(2-(piperidin-1-yl)ethyl)amino)phenyl)acrylamide], for which the melting point was 131 to 136 °C. The IC50 on EGFR T790M/L858R was 1 to 10 nM.

As to `C=CC(=O)Nc1cc(Nc2ncc(NC)c(-n3ccc4ccccc43)n2)c(OC)cc1N(C)CCN(C)C` [Compound 11, N-(5-(4-(1H-indol-1-yl)-5-(methylamino)pyrimidin-2-ylamino)-2-((2-(dimethylamino)ethyl)(methyl)amino)-4-methoxyphenyl)acrylamide], the melting point fell in the range of 154 to 156 °C. The IC50 at EGFR T790M/L858R lay in the range of 1 to 10 nM.

These data come from patent US11267802B2 (BEBETTER MED INC., priority 2015, dated 2022).
